Source: the supplement of paper PMC11368000

What was measured:
Details in all cases: exposure time: 90 min
1531 = donor line of iPSC-derived cardiomyocytes; experiment: POD (EC95) for loss of peak frequency (asystole) vs vehicle; higher = less potent (higher point of departure)
Procedure, shortened: (§1)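 Ca2+ flux in human iPSC-derived cardiomyocytes from 16 donors was recorded on a FLIPR Tetra for 100 s before and after a 90 min exposure at 37 °C to 0.1, 1, 10 and 100 µM (final, 0.5% DMSO). Donor-specific points of departure came from hierarchical Bayesian Hill fits to vehicle-normalised beat frequency, decay-to-rise ratio or peak frequency. A 5% change served as threshold, except for peak frequency, where it was a 95% loss.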

1083 [1] = donor line of iPSC-derived cardiomyocytes; experiment: as above
Procedure, shortened: as §1

20032 [2] = donor line of iPSC-derived cardiomyocytes; experiment: as above
Procedure, shortened: as §1

1118 [3] = donor line of iPSC-derived cardiomyocytes; experiment: as above
Procedure, shortened: as §1

30171 [4] = donor line of iPSC-derived cardiomyocytes; experiment: as above
Procedure, shortened: as §1

1434 [5] = donor line of iPSC-derived cardiomyocytes; experiment: as above
Procedure, shortened: as §1

11235 [6] = donor line of iPSC-derived cardiomyocytes; experiment: as above
Procedure, shortened: as §1

1565 [7] = donor line of iPSC-derived cardiomyocytes; experiment: as above
Procedure, shortened: as §1

1083 [8] = experiment: POD (EC05) for increase in Ca2+ transient decay-to-rise ratio (QT prolongation) vs vehicle; higher = less potent (higher point of departure)
Procedure, shortened: as §1

20032 [9] = experiment: as above
Procedure, shortened: as §1

1118 [10] = experiment: as above
Procedure, shortened: as §1

1309 = donor line of iPSC-derived cardiomyocytes; experiment: as above
Procedure, shortened: as §1

30171 [11] = experiment: as above
Procedure, shortened: as §1

20084 = donor line of iPSC-derived cardiomyocytes; experiment: as above
Procedure, shortened: as §1

1368 = donor line of iPSC-derived cardiomyocytes; experiment: as above
Procedure, shortened: as §1

1434 [12] = experiment: as above
Procedure, shortened: as §1

30145 = donor line of iPSC-derived cardiomyocytes; experiment: as above
Procedure, shortened: as §1

1392 = donor line of iPSC-derived cardiomyocytes; experiment: as above
Procedure, shortened: as §1

11235 [13] = experiment: as above
Procedure, shortened: as §1

1565 [14] = experiment: as above
Procedure, shortened: as §1

| Compound | POD vs vehicle 1531 [µM] | POD vs vehicle 1083 [1] [µM] | POD vs vehicle 20032 [2] [µM] | POD vs vehicle 1118 [3] [µM] | POD vs vehicle 30171 [4] [µM] | POD vs vehicle 1434 [5] [µM] | POD vs vehicle 11235 [6] [µM] | POD vs vehicle 1565 [7] [µM] | POD vs vehicle 1083 [8] [µM] | POD vs vehicle 20032 [9] [µM] | POD vs vehicle 1118 [10] [µM] | POD vs vehicle 1309 [µM] | POD vs vehicle 30171 [11] [µM] | POD vs vehicle 20084 [µM] | POD vs vehicle 1368 [µM] | POD vs vehicle 1434 [12] [µM] | POD vs vehicle 30145 [µM] | POD vs vehicle 1392 [µM] | POD vs vehicle 11235 [13] [µM] | POD vs vehicle 1565 [14] [µM] |
| --- | --- | --- | --- | --- | --- | --- | --- | --- | --- | --- | --- | --- | --- | --- | --- | --- | --- | --- | --- | --- |
| O=S(=O)(O)C(F)(F)C(F)(F)C(F)(F)C(F)(F)C(F)(F)C(F)(F)C(F)(F)C(F)(F)F [Perfluorooctanesulfonic_acid] | > 100 | > 100 | > 100 | > 100 | > 100 | > 100 | 12.5 | > 100 | > 100 | > 100 | > 100 | > 100 | > 100 | > 100 | > 100 | > 100 | > 100 | > 100 | > 100 | > 100 |
| O=C(O)C(F)(F)C(F)(F)C(F)(F)C(F)(F)C(F)(F)C(F)(F)C(F)(F)F [Perfluorooctanoic_acid] | > 100 | > 100 | > 100 | > 100 | > 100 | > 100 | 92.2 | > 100 | > 100 | > 100 | > 100 | > 100 | > 100 | > 100 | > 100 | > 100 | > 100 | > 100 | > 100 | > 100 |
| O=C(O)C(F)(F)C(F)(F)C(F)(F)C(F)(F)F [Perfluoropentanoic_acid] | > 100 | > 100 | > 100 | > 100 | > 100 | > 100 | > 100 | > 100 | > 100 | > 100 | > 100 | > 100 | > 100 | > 100 | > 100 | > 100 | > 100 | > 100 | > 100 | > 100 |
| O=C(O)C(F)(F)C(F)(F)F [Perfluoropropanoic_acid] | > 100 | > 100 | > 100 | > 100 | > 100 | > 100 | > 100 | > 100 | > 100 | > 100 | > 100 | > 100 | > 100 | > 100 | > 100 | > 100 | > 100 | > 100 | > 100 | > 100 |
| O=C(O)C(F)(F)C(F)(F)C(F)(F)C(F)(F)C(F)(F)C(F)(F)C(F)(F)C(F)(F)C(F)(F)C(F)(F)F [Perfluoroundecanoic_acid] | > 100 | > 100 | > 100 | > 100 | > 100 | > 100 | 95.4 | > 100 | > 100 | > 100 | > 100 | > 100 | 4.57 | > 100 | > 100 | > 100 | > 100 | > 100 | > 100 | > 100 |
| O=S(=O)([O-])C(F)(F)C(F)(F)C(F)(F)C(F)(F)F.[K+] [Potassium_perfluorobutanesulfonate] | > 100 | > 100 | > 100 | > 100 | > 100 | > 100 | > 100 | > 100 | > 100 | > 100 | > 100 | > 100 | > 100 | > 100 | > 100 | > 100 | > 100 | > 100 | > 100 | > 100 |
